Data set [1] deals with chemo brain and brain fog. Nature of the data set: Low dose topical dronabinol for chemo brain and brain fog induced by short-term chemotherapy (same patient). The protocol: The patient was treated again with temozolamide, and bevacizumab.
Each morning, the patient was treated with dronabinol as described in Example 1 supra.

Data set [2] deals with glioblastoma. Nature of the data set: Course of glioblastoma (MRI/PET) under chemotherapy with or without topical dronabinol (same patient). To be noted: for adverse effects that led to discontinuation of chemotherapy: patient with glioblastoma. In kind it is in vivo, human. The protocol: By way of reminder, the patient described in the two examples set forth above was diagnosed with glioblastoma in February 2010. Approximately 95% of the tumor was surgically removed within 3 days of diagnosis. Following the surgery, the patient was treated with radiation, as well as by chemotherapy with a combination of temozolamide, topotecan, and bevacizumab. […] In May of 2011, the combination therapy was discontinued and the patient received only maintenance bevacizumab. MRI scans were performed every two months to monitor any changes in the brain.
The patient resumed chemotherapy with a combination of temozolamide, etoposide, and bevacizumab. […] The chemotherapy regimen was changed to carboplatin, irinotecan, together with bevacizumab.
As mentioned above, the patient was treated with 2.5 mg topical dronabinol beginning in December 2012 and continuing to the present.
On Mar. 19, 2014, a further increase in size of the tumor was noted. The secondary tumor was unchanged.
In early April 2014, the patient was again treated with temozolamide and bevacizumab.

Data set [3] concerns chemo brain and brain fog (chemotherapy-associated cognitive or emotional impairment). Briefly: Daily low-dose topical dronabinol for chemo brain and brain fog induced by long term chemotherapy and radiation (single patient). To be noted: 2.5 mg daily applied to forehead. The protocol:
A person was diagnosed with glioblastoma in February 2010 and underwent immediate surgery to remove the tumor. Within 6 weeks of the surgery, they began radiotherapy and chemotherapy with a combination of temozolamide, topotecan, and bevacizumab.
Beginning in December of 2012 and continuing through March of 2014, the patient, who was not undergoing any chemotherapy at this time, was treated daily with 2.5 mg of dronabinol applied to their forehead. Daily evaluation by their caretaker and quarterly evaluations by a medical institution were documented during this treatment period.

Data set [4] has as its system glioblastoma tumor. To be noted: one human study; cited from earlier work.

With `CCCCCc1cc(O)c2c(c1)OC(C)(C)[C@@H]1CCC(C)=C[C@@H]21` [dronabinol, (6aR,10aR)-6a,7,8,10a-tetrahydro-6,6,9-trimethyl-3-pentyl-6H-dibenzo[b,d]-pyran-1-ol], in data set [1] (2.5 mg topical each morning during chemotherapy), the “hallucinatory or adverse cognitive effects” value was “no hallucinatory or adverse cognitive effects were observed”. For the same compound, the “time to significant diminishment of brain fog after each dose” value in data set [1] (2.5 mg topical each morning during temozolamide and bevacizumab chemotherapy) was ≤ 45 min. Also, the “duration of the effects of administration” value in data set [1] (2.5 mg topical each morning, six-week period) is recorded as “lasted until the following morning”. Moreover, the “tumor response by MRI, chemotherapy co-administered with topical dronabinol” value in data set [2] (2.5 mg topical dronabinol continued with temozolamide and bevacizumab, MRI 6 weeks after initiation of chemotherapy) is “shrinkage of both the primary tumor that had regrown into the extirpated space and the secondary tumor”. Besides, the “primary tumor by MRI, topical dronabinol without chemotherapy” value in data set [2] (2.5 mg topical dronabinol, MRI December 6, 2013 and Mar. 19, 2014) is reported as “increase in size of the primary tumor”. In addition, in data set [2] (2.5 mg topical dronabinol, Mar. 19, 2014), the “secondary tumor by MRI, topical dronabinol without chemotherapy” value is “unchanged”. For the same compound, in data set [3] (December 2012 to March 2014), the “cognitive functions, emotional skills, and social interaction skills” value is “showed daily and long term improvement”; the “hallucinatory or adverse cognitive effects” value is “no hallucinatory or adverse cognitive effects were observed”. Also, in data set [3] (patient not on chemotherapy), the “time to signs of improved recognition, memory, and social interaction after initiation of treatment” value was 1 to 2 days.

Consider `CCCCCc1cc(O)c2c(c1)OC(C)(C)[C@@H]1CCC(C)=C[C@@H]21` [THC, tetrahydrocannabinol], for which the “benefit of THC instilled into a glioblastoma tumor” value in data set [4] was “failed to demonstrate a clear-cut benefit”.

For `O=NN(CCCl)C(=O)NC1CCCCC1` [lomustine], the “adverse effects that led to discontinuation of chemotherapy” value in data set [2] is “hypertension and proteinuria”.

On to Bevacizumab: chemotherapy agent, for which, in data set [2], the “adverse effects that led to discontinuation of chemotherapy” value was “hypertension and proteinuria”.

Values taken from patent US20160271100A1, “METHOD FOR TREATING TUMORS AND RADIOTHERAPY- AND CHEMOTHERAPY-[…] OR EMOTIONAL […] CANNABINOIDS” (GLIA LLC, priority 2014, published 2016).
